Oligonucleotides are written 5' to 3', each unit as a sugar letter and its base; * is a phosphorothioate linkage, no mark a phosphodiester; rarer units and linkages stand in square brackets, end groups in braces. Plain capitals give the bases only. e = 2'-O-(2-methoxyethyl) (MOE); l = locked nucleic acid (LNA); [5mC] = 5-methylcytosine; d = 2'-deoxy (DNA)
Legend:
mGrn mRNA = mGrn mRNA qPCR in Neuro2a cells transfected with ASOs; type: cell-based, mouse; details: for mGRN mRNA FC: Table 14, 100 nM, 48 hours, normalized to sNTC3; for 40 nM FC (mGrn mRNA) / 80 nM FC (mGrn mRNA) / 160 nM FC (mGrn mRNA): transfection
Experimental: 57 ASOs targeting the Grn promoter (− strand) were screened in Neuro2a cells. Neuro2a cells were transfected with 100 nM of each of the ASOs listed in Table 14 and cells were harvested 48 hours later for Grn mRNA quantification using qPCR. Housekeeping genes for normalization were Gapdh and Ppia. Relative Grn mRNA levels were normalized to mRNA extracted from cells treated with sNTC3 (steric nontargeting control).
Next, 26 ASOs based on parent ASOs CO-3544 and CO-3595 were designed with different modifications and base walking. Neuro2a cells were transfected with either […] or 160 nM of each of the ASOs listed in Table 15, and cells were harvested 48 hours later for mGrn mRNA quantification using qPCR. As controls, cells were treated with sNTC3 or no ASO. Housekeeping genes for normalization were Gapdh and Ppia. Relative Grn mRNA levels were normalized to mRNA extracted from cells treated with sNTC3.
CO-3544 was modified to include PO/PS bonds and the efficacy in upregulating mGrn mRNA was determined.
Similarly, CO-3595 was modified to include varying PO/PS internucleotide bonds and the efficacy of these ASOs in upregulating mGrn mRNA was determined in Neuro2A cells.

GRN mRNA = GRN mRNA qPCR in SK-N-AS cells transfected with ASOs; type: cell-based, human; details: SK-N-AS; for hit identification (GRN mRNA dose escalation): 3.75 nM to 120 nM; for hGRN mRNA FC / 120 nM FC (GRN mRNA): 120 nM
How it was run: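 Fold change in GRN mRNA, by qPCR with GAPDH/PPIA housekeeping normalization, referenced to steric non-targeting control ASO(s) such as CO-1589. ASOs were transfected into SK-N-AS neuroblastoma cells in dose titrations (20 to 160 nM initially). Cells were harvested 48 hours post-transfection.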

[1] = Table 9, 48 hours post-transfection, normalized to CO-1589
[2] = Table 10, 48 hours, normalized to CO-1589
[3] = Table 11, 48 hours, normalized to CO-1589
[4] = Table 12, normalized to CO-1589
[5] = Table 4, normalized to CO-3772 and CO-1589 (sNTC1)
[6] = Table 13, normalized to CO-1589

CO-3586: ASO targeting the Grn promoter (− strand) (antisense eA*eA*eT*e[5mC]*eT*eA*eG*eT*eT*eT*e[5mC]*eA*eA*eG*eT*eT*e[5mC]*e[5mC]*eT*e[5mC])
mGRN mRNA FC (mGrn mRNA; Neuro2a): 1.4 FC

CO-3576: ASO targeting the Grn promoter (− strand) (antisense eA*eT*eG*eT*eA*e[5mC]*eA*eA*eA*eA*eG*eT*e[5mC]*e[5mC]*e[5mC]*eG*eA*eT*e[5mC]*e[5mC])
mGRN mRNA FC (mGrn mRNA; Neuro2a): 1.2 FC

CO-5303: CO-3595 modified to include varying PO/PS internucleotide bonds (antisense e[5mC]*e[5mC]*eTeGeAeAe[5mC]eTeGeTeAeTeGeGe[5mC]eTeG*eA*e[5mC]*e[5mC])
40 nM FC (mGrn mRNA) (mGrn mRNA; Table 16, Neuro2A): 1.3 FC | 80 nM FC (mGrn mRNA) (mGrn mRNA; Table 16, Neuro2A): 1.6 FC | 160 nM FC (mGrn mRNA) (mGrn mRNA; Table 16, Neuro2A): 1.8 FC

CO-3574: ASO targeting the Grn promoter (− strand) (antisense eG*e[5mC]*eT*e[5mC]*eT*e[5mC]*e[5mC]*eT*eA*eA*e[5mC]*eT*eG*eT*eG*eG*eG*eT*eG*e[5mC])
mGRN mRNA FC (mGrn mRNA; Neuro2a): 1.3 FC

CO-5302: CO-3544 modified to include PO/PS bonds (antisense lG*lT*eT*l[5mC]*eT*l[5mC]*e[5mC]*l[5mC]*eT*lA*eG*l[5mC]*eT*lG*eT*lG*lT*eA*lG*lT)
40 nM FC (mGrn mRNA) (mGrn mRNA; Table 15, Neuro2a): 1.3 FC | 80 nM FC (mGrn mRNA) (mGrn mRNA; Table 15, Neuro2a): 1.2 FC | 160 nM FC (mGrn mRNA) (mGrn mRNA; Table 15, Neuro2a): 1.0 FC

CO-3594: ASO targeting the Grn promoter (− strand) (antisense e[5mC]*eA*eT*eG*eG*eT*e[5mC]*eT*e[5mC]*eT*eA*eT*eT*e[5mC]*eA*e[5mC]*e[5mC]*e[5mC]*eA*e[5mC])
mGRN mRNA FC (mGrn mRNA; Neuro2a): 1.6 FC

CO-3588: ASO targeting the Grn promoter (− strand) (antisense eG*eT*e[5mC]*eT*eG*eT*eA*eA*eA*eG*eA*eA*e[5mC]*eA*eA*eG*eA*eT*eA*eT)
mGRN mRNA FC (mGrn mRNA; Neuro2a): 0.9 FC

CO-3578: ASO targeting the Grn promoter (− strand) (antisense eT*eT*e[5mC]*e[5mC]*eA*eA*e[5mC]*eT*eG*eG*eT*eT*eT*e[5mC]*eG*eA*eG*eT*e[5mC]*e[5mC])
mGRN mRNA FC (mGrn mRNA; Neuro2a): 1.0 FC

CO-5290: CO-3544 modified to include PO/PS bonds (antisense eG*eT*eTe[5mC]eTe[5mC]e[5mC]e[5mC]eTeAeGe[5mC]eTeGeTeGeT*eA*eG*eT)
40 nM FC (mGrn mRNA) (mGrn mRNA; Table 15, Neuro2a): 1.1 FC | 80 nM FC (mGrn mRNA) (mGrn mRNA; Table 15, Neuro2a): 1.0 FC | 160 nM FC (mGrn mRNA) (mGrn mRNA; Table 15, Neuro2a): 1.0 FC

CO-3557: ASO targeting the Grn promoter (− strand) (antisense eT*eG*eT*e[5mC]*eG*eG*eA*eA*eA*eG*e[5mC]*eT*eG*e[5mC]*eA*eG*eG*e[5mC]*e[5mC]*eT)
mGRN mRNA FC (mGrn mRNA; Neuro2a): 1.6 FC

CO-3563: ASO targeting the Grn promoter (− strand) (antisense eG*e[5mC]*eA*eG*eA*e[5mC]*eA*eA*eT*e[5mC]*eT*e[5mC]*e[5mC]*e[5mC]*e[5mC]*eG*eG*e[5mC]*eT*eA)
mGRN mRNA FC (mGrn mRNA; Neuro2a): 1.5 FC

CO-3570: ASO targeting the Grn promoter (− strand) (antisense e[5mC]*eT*eA*eA*eT*e[5mC]*eA*e[5mC]*eA*eT*eG*eA*eT*e[5mC]*e[5mC]*e[5mC]*eT*eA*eG*eA)
mGRN mRNA FC (mGrn mRNA; Neuro2a): 1.2 FC

CO-3593: ASO targeting the Grn promoter (− strand) (antisense e[5mC]*eA*eT*eA*eA*e[5mC]*eA*eA*eT*eT*e[5mC]*e[5mC]*eT*e[5mC]*eG*eA*eA*eG*eG*eT)
mGRN mRNA FC (mGrn mRNA; Neuro2a): 1.1 FC

CO-4622: ASO designed to target intergenic enhancers (eRNA) (antisense eA*e[5mC]*eA*eG*eT*eG*eG*e[5mC]*e[5mC]*eG*e[5mC]*eA*eT*eA*eA*eA*eT*eT*eT*e[5mC])
hit identification (GRN mRNA dose escalation) (GRN mRNA; 48 hours): initial hits | hGRN mRNA FC (GRN mRNA; [1]): 1.0 FC | 3.75 nM FC (GRN mRNA) (GRN mRNA; [2]): 1.0 FC | 7.5 nM FC (GRN mRNA) (GRN mRNA; [2]): 1.0 FC | 15 nM FC (GRN mRNA) (GRN mRNA; [2]): 1.0 FC | 30 nM FC (GRN mRNA) (GRN mRNA; [2]): 1.0 FC | 60 nM FC (GRN mRNA) (GRN mRNA; [2]): 1.1 FC | 120 nM FC (GRN mRNA) (GRN mRNA; [2]): 1.1 FC

CO-6435: ASO designed to target an intragenic enhancer RNA (eRNA) (eA*eG*eG*e[5mC]*e[5mC]*eA*e[5mC]*e[5mC]*eT*eG*e[5mC]*eT*eG*e[5mC]*eT*e[5mC]*e[5mC]*eG*eA*eT)
hGRN mRNA FC (GRN mRNA; [3]): 1.2 FC

CO-6387: ASO based on parent ASO CO-3462 (antisense eT*eA*eG*eG*eA*dG*dA*dA*eT*d[5mC]*dG*e[5mC]*dT*dT*dT*eG*eG*eG*eA*eG)
30 nM FC (GRN mRNA) (GRN mRNA; [4]): 1.3 FC | 60 nM FC (GRN mRNA) (GRN mRNA; [4]): 1.0 FC | 120 nM FC (GRN mRNA) (GRN mRNA; [4]): 1.1 FC

CO-6520: ASO based on parent ASO CO-3462 (antisense eT*eA*eG*eG*eA*eG*eA*eAeTe[5mC]eGe[5mC]eTeTeTeGeGeG*eA*eG)
30 nM FC (GRN mRNA) (GRN mRNA; [4]): 1.0 FC | 60 nM FC (GRN mRNA) (GRN mRNA; [4]): 1.2 FC | 120 nM FC (GRN mRNA) (GRN mRNA; [4]): 0.8 FC

CO-6453: ASO designed to target an intragenic enhancer RNA (eRNA) (eG*eA*eA*eA*eA*eA*eG*eT*eT*eT*e[5mC]*e[5mC]*eT*e[5mC]*e[5mC]*eA*eT*e[5mC]*e[5mC]*eT)
hGRN mRNA FC (GRN mRNA; [3]): 0.9 FC

CO-4363: longer ASO based on CO-3423 (antisense eG*eG*eA*e[5mC]*eT*eT*eG*eG*eG*eA*eG*eT*eG*eG*eT*eG*eA*e[5mC]*eT*eG*eA)
30 nM FC (GRN mRNA) (GRN mRNA; [5]): 1.3 FC | 60 nM FC (GRN mRNA) (GRN mRNA; [5]): 2.2 FC | 120 nM FC (GRN mRNA) (GRN mRNA; [5]): 1.8 FC | 30 nM FC (GRN mRNA) (GRN mRNA; [6]): 1.6 FC | 60 nM FC (GRN mRNA) (GRN mRNA; [6]): 1.7 FC | 120 nM FC (GRN mRNA) (GRN mRNA; [6]): 1.7 FC

CO-6391: ASO based on parent ASO CO-3462 (antisense eT*eA*eG*eG*eA*lG*eA*eA*lT*e[5mC]*eG*l[5mC]*eT*eT*lT*eG*eG*eG*eA*eG)
30 nM FC (GRN mRNA) (GRN mRNA; [4]): 1.3 FC | 60 nM FC (GRN mRNA) (GRN mRNA; [4]): 1.0 FC | 120 nM FC (GRN mRNA) (GRN mRNA; [4]): 1.6 FC

CO-4626: ASO designed to target intergenic enhancers (eRNA) (antisense e[5mC]*e[5mC]*eT*e[5mC]*eA*eT*eG*eT*eA*eT*eG*eT*eA*eA*eT*eT*eG*e[5mC]*e[5mC]*e[5mC])
hGRN mRNA FC (GRN mRNA; [1]): 1.0 FC

CO-6398: ASO based on parent ASO CO-3462 (antisense eT*eA*eG*eG*lA*eG*eA*eA*eT*l[5mC]*eG*e[5mC]*eT*eT*lT*eG*eG*eG*eA*eG)
30 nM FC (GRN mRNA) (GRN mRNA; [4]): 1.3 FC | 60 nM FC (GRN mRNA) (GRN mRNA; [4]): 1.5 FC | 120 nM FC (GRN mRNA) (GRN mRNA; [4]): 1.8 FC

CO-4633: ASO designed to target intergenic enhancers (eRNA) (antisense eT*e[5mC]*e[5mC]*eT*e[5mC]*eT*eG*e[5mC]*e[5mC]*eT*eG*eA*e[5mC]*eT*eA*eA*eT*eT*e[5mC]*eG)
hGRN mRNA FC (GRN mRNA; [1]): 1.3 FC

CO-6436: ASO designed to target an intragenic enhancer RNA (eRNA) (eT*eG*eT*e[5mC]*e[5mC]*e[5mC]*e[5mC]*eA*e[5mC]*eT*e[5mC]*eA*eG*eG*e[5mC]*e[5mC]*eA*e[5mC]*e[5mC]*eT)
hGRN mRNA FC (GRN mRNA; [3]): 1.1 FC

CO-6449: ASO designed to target an intragenic enhancer RNA (eRNA) (eG*eT*e[5mC]*e[5mC]*eA*eG*e[5mC]*eT*e[5mC]*eG*eG*eT*e[5mC]*eA*eT*eG*eT*eG*eT*e[5mC])
hGRN mRNA FC (GRN mRNA; [3]): 1.1 FC

CO-4613: ASO designed to target intergenic enhancers (eRNA) (antisense eA*eT*e[5mC]*eA*eA*eG*eG*eG*eT*eT*eT*eG*eG*e[5mC]*eG*eT*eT*eT*eA*eG)
hit identification (GRN mRNA dose escalation) (GRN mRNA; 48 hours): initial hits | hGRN mRNA FC (GRN mRNA; [1]): 1.6 FC | 3.75 nM FC (GRN mRNA) (GRN mRNA; [2]): 1.0 FC | 7.5 nM FC (GRN mRNA) (GRN mRNA; [2]): 1.1 FC | 15 nM FC (GRN mRNA) (GRN mRNA; [2]): 1.2 FC | 30 nM FC (GRN mRNA) (GRN mRNA; [2]): 1.1 FC | 60 nM FC (GRN mRNA) (GRN mRNA; [2]): 1.2 FC | 120 nM FC (GRN mRNA) (GRN mRNA; [2]): 1.4 FC
